One test deals with Jurkat cells. Briefly: Jurkat cell aggregation. The test is classed as cell-based. As to the method: Percent of Jurkat cells present in aggregates is plotted against the treatment. […] Aggregate formation could be inhibited by addition of 50 mM methyl a-D-mannopyranoside (a man). Compounds 9-12 were added to a final mannose concentrations of 0.5 μM or 5 μM along with a final ConA concentration of 5 μg/mL. Results are the average of at least three independent experiments and error bars represent single standard deviations.
The ability of Con A clusters formed on ROMP-derived polymers to aggregate Jurkat cells was examined initially by light microscopy (see FIG. 10). […] For Jurkat cells, inhibition occurred even at low concentrations (0.5 μM) of monovalent ligands. […] Increasing the concentration of the multivalent ligand 10-fold (5 μM) abolished aggregation activity, consistent with site saturation. […] The ability of Con A complexed to multivalent ligands to interact with cell surfaces was thus tunable. […]
Cells were pelleted at 400×g, resuspended gently into 50 μL PBS, and then added to slides for visualization at 200× magnification on a Zeiss Axioscope outfitted with the appropriate filter set. Approximately 100-200 cells were counted from random fields on each day.
Clusters were scored for at least two cells in direct contact with each other and expressed as a percentage of the total number of objects (individual cells and clusters) counted. […]

For another test, the system named is B. subtilis 011085. Briefly: B. subtilis capillary accumulation assay. The test is classed as cell-based, Bacillus subtilis. To be noted: saccharide residue concentration; 37° C., 30 min. An excerpt:
FIG. 4: Results of B. subtilis capillary accumulation assays using ROMP-derived glucose ligands (compound 5-7, Scheme 1). Buffer alone, glucose, or glucose-bearing compounds 5-7 were used as attractants in the capillary accumulation assay. Results are shown for glucose, compound 5, compound 6, and compound 7. Results are the average of at least four trials performed in duplicate and error bars represent single standard deviations.
To test the generality of the observed valency-dependent differences in chemotactic activities and to investigate the role of membrane permeability in responses to our ligands, chemotactic experiments in B. subtilis were conducted. B. subtilis is a gram-positive bacterium that, like gram-negative E. coli, is able to respond to saccharide chemoattractants. In the case of B. subtilis, the multivalent ligands can directly interact with saccharide-sensing receptors, without having to first traverse the outer membrane. Glucose is a chemoattractant for B. subtilis, but galactose is not. Glucose-carrying ligands (compounds 5-7, Scheme 1) were effective chemoattractants for B. subtilis as shown in capillary accumulation assays. […] Free chemoattractant signal glucose had maximal activity as a chemoattractant at 0.5 mM. In analogy to observations with E. coli, as the valency of the ligand increases, the saccharide residue concentration of maximum chemotaxis decreases. […] The results observed indicate that in evolutionarily divergent bacteria E. coli and B. subtilis, the valency of the attractant influences chemotactic response.
E. coli from an overnight culture were grown in LB to OD550 0.4-0.6, washed twice with E. coli chemotaxis buffer, and then partially permeabilized. Bacteria were resuspended in chemotaxis buffer to an OD550 0.1 and utilized in the capillary accumulation assay at 30° C. for 60 min, as previously described. […] Data was analyzed using the Q and Students tests.

The target of a further test is T1, His-tagged FGF-8b (Homo sapiens, UniProt P55075).
T1 sequence (P55075 23-215 isoform P55075-3 limits assumed): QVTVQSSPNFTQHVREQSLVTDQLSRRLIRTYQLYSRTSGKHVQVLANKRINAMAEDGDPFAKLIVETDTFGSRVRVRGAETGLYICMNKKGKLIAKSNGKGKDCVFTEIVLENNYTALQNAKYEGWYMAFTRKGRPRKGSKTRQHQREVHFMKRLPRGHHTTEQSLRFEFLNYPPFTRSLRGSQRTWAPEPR
The experiment in a line: cross-linking of FGF-8b (EGS, SDS-PAGE). The test is classed as binding. The note with it: increasing ratio of polymer or heparin to FGF-8b. As to the method: FIGS. 15A and B are illustrations of SDS-PAGE-gels (12%, under reducing conditions) comparing cross-linking of FGF-8b mediated by nickel-chelating polymer (FIG. 15A) and heparin (FIG. 15B). FGF-8b was incubated with polymer 6 for 1 hour at 0° C. The ratio of FGF-8b to polymer was as follows: a. 1:0.001, b. 1:0.003, c. 1:0.01, d. 1:0.03, e. 1:0.1, f. 1:0.3, f. 1:1. EGS (ethylene glycol bis[succinimidylsuccinate]) was added, and cross-linking was allowed to proceed for 5 minutes at 0° C. The reactions were quenched with ethanolamine (excess) for 1 hour at 0° C. Samples were concentrated under vacuum, analyzed on a 12% SDS-PAGE gel under reducing conditions, and detected with Coomassie staining.
Specifically, one of the functions of the oligosaccharide heparin in vitro is to oligomerize FGF ligand proteins and present them to the FGF receptor in a multivalent fashion. […]
FGF-8b was incubated with polymer 6 for 1 hour at 0° C. […] Samples were concentrated under vacuum, analyzed on a 12% SDS-PAGE gel under reducing conditions, and detected with Coomassie staining.
FGF-8b was incubated with heparin (Sigma, porcine intestinal mucosa, 17-19 kDa) for 1 hour at 0° C. […] Samples were concentrated under vacuum, analyzed on a 12% SDS-PAGE gel under reducing conditions, and detected with Coomassie staining. […]

In a further test the test system is E. coli. To be noted: galactose as attractant [34]; cited from earlier work.
The next test concerns E. coli AW405. The experiment in a line: video microscopy motion analysis of bacteria. The test is classed as cell-based, Escherichia coli. The note with it: first 5-15 seconds after addition of attractant. As to the method: FIG. 2A: Results of video microscopy motion analysis experiments. Bacteria (Escherichia coli) were treated with buffer alone, galactose, or compound 1 or 3 (Scheme 1) at the indicated saccharide concentrations. The results represent the average from at least five independent experiments performed in triplicate. Error bars represent the deviation between per-second averages during the ten second interval.
Ligands functionalized with galactose such as monovalent ligand 1 and multivalent ligand 3, also serve as attractants in vivo. […] To observe the effects of synthetic ligands on tumbling frequency, E. coli were treated with galactose or galactose-bearing ligands, and bacterial motion was recorded and analyzed using the method of Sager et al.. The tumbling frequency was assessed by averaging the mean angular velocity of the paths obtained in the first 5-15 seconds after addition of attractant (FIG. 2A). […]
Partially permeabilized bacteria (25 μM EDTA for 3 min. at room temperature, then quench with 50 μM CaCl2) at an OD550 of 0.1 were placed under a cover slip supported by additional cover slips in the method of Sager et al.. […] The bacterial motion at 28° C. was recorded, and the paths were analyzed using the ExpertVision system. Paths derived from the first 5 to 15 seconds following the introduction of attractant were analyzed. […] Data were analyzed using the Q and Students tests.

For `CO[C@H]1O[C@H](CO)[C@@H](O)[C@H](O)[C@@H]1O` [methyl α-D-mannopyranoside], the “effect on Con A aggregate formation” value in the test with Jurkat cells (50 mM) is on record as “inhibited”. For the same molecule, in the test on Jurkat cells (ligand 0.5 μM premixed with Con A 5 μg/mL), the “effect on Con A-mediated Jurkat cell aggregation” value is listed as “inhibited aggregation”. Regarding `O=C(NCCOC1OC(CO)C(O)C(O)C1O)C1C[C@@H]2C=CC1C2` (stereo partly shown) [Compound 5], in the test on B. subtilis 011085, the “concentration of maximum activity as chemoattractant” value is on record as 1 mM. Take heparin: the “cross-linking pattern of FGF-8b” value on His-tagged FGF-8b is “pattern in cross-linking indicative of oligomerization due to a specific ligand/scaffold interaction”. `O=C[C@H](O)[C@@H](O)[C@@H](O)[C@H](O)CO` [galactose, reference compound]: the “number of E. coli accumulated” value in the test on E. coli is recorded as 120,000 bacteria. For the same molecule, the “mean angular velocity (tumbling frequency) after addition of attractant” value with E. coli AW405 is given as “the mean angular velocity decreased”. In the case of `O=C[C@H](O)[C@@H](O)[C@H](O)[C@H](O)CO` [glucose, reference compound], the “concentration of maximum activity as chemoattractant” value in the test with B. subtilis 011085 turned out to be 0.5 mM.

These data come from patent US20040248801A1, “Methods and reagents for regulation of cellular responses in biological systems” (priority 2000, published 2004).
